Results reported in US7494996B2 (priority 2000, dated 2009).

Columns and labels:
Mexican Bean Beetle = test: Protocol 1 Mexican Bean Beetle (BB) foliar spray test; format: in vivo, Epilachna verivestis; conditions: control rated after 48 hours (100 = all larvae dead)
Procedure: (§1) A test solution containing 1250 parts per million (ppm) was prepared by dissolving the test compound in […] of a second solvent (acetone: water, 1:1) to give an acetone:water: methanol system of 50: 40:10.
(§2) The enclosed spraying chamber consisted of a single spray nozzle mounted on a boom moving at a fixed speed and distance over stationary targets. The vertical distance from the nozzle tip to the targets was adjusted to give rates varying from 150 g/ha to 600 g/ha
(§3) Individual fully expanded primary lima bean (Phaseolus limensis) leaves were placed bottom side up on moistened pieces of filter paper in Petri dishes. The leaves were sprayed with the test solutions and allowed to dry. The dishes were infested with 5 third instar larvae of the mexican bean beetle, covered with the lids, and held at 27° C. Bean beetle control was rated by visual inspection after 48 hours. […] A rating of 0 indicated no dead larvae and normal feeding. Intermediate control was indicated by intermediate ratings.

Two-Spotted Spider Mite = test: Protocol 1 Two-Spotted Spider Mite (MTA) foliar spray test; format: in vivo, Tetranychus urticae; conditions: percentage of mites killed 1-day post-treatment
Procedure: as §1, §2
A pad of moistened cotton was placed in a Petri dish. A 1-inch square section cut from a fully expanded primary lima bean (Phaseolus limensis) leaf was positioned bottom side up on the moist cotton. The leaf square was infested with approximately 50 adult female mites. The dishes were sprayed with the test solutions and held at 27° C. for mortality determination 1-day post-treatment. The percentage of mites killed were rated from 100% (all dead) to 0% (all alive).

Sphaerotheca fuliginea = test: Cucumber Powdery Mildew (CPM) protectant test in the greenhouse; format: in vivo; conditions: 300 g/ha, 100 is total disease control, 0 is no disease control
How it was run: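 Compounds in acetone-methanol-water (1:1:2) sprayed onto cucumber cv. "Bush Champion" (cotyledons plus one true leaf, 13 days old), dried 4 h. Inoculated 1 day later with 2×10^5 spores/ml; disease control (%) rated after 7 days in greenhouse.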

Pyricularia oryzae = test: whole plant or invertebrate; format: in vivo; conditions: protectant, 300 g/ha, greenhouse; 100 is total disease control, 0 is no disease control
Southern Armyworm = test: Protocol 1 Southern Armyworm (AW) foliar spray test; format: in vivo, Spodoptera eridania
Procedure: as §1, §2
as §3, with “southern armyworm,” for “mexican bean beetle,”, “Armyworm” for “Bean beetle”

SMILES	BB (Mexican Bean Beetle; Protocol 1, DOSE 300)	MTA (Two-Spotted Spider Mite; Protocol 1, DOSE 300)	Cucumber Powdery Mildew (CPM) protectant fungicide data, percent control (Sphaerotheca fuliginea)	Rice Blast (RB) protectant fungicide data, percent control (Pyricularia oryzae)	AW (Southern Armyworm; Protocol 1, DOSE 300)	BB (Mexican Bean Beetle; Protocol 1, DOSE 150)	MTA (Two-Spotted Spider Mite; Protocol 1, DOSE 150)	AW (Southern Armyworm; Protocol 1, DOSE 150)
Cc1ccc(C2=NN(CC(F)(F)F)C(=O)CN2)cc1 [Compound 41]	50	0%	50 percent control	100 percent control	0	–	–	–
COc1cccc(-c2ncc(=O)n(CC(F)(F)F)n2)c1 [Compound 252]	–	–	0 percent control	85 percent control	–	100	50%	0
C=CCn1nc(-c2ccc(Cl)cc2)ncc1=O [Compound 236]	100	100%	90 percent control	99 percent control	0	–	–	–
Cc1c(Cl)cc(-c2ncc(=O)n(CC(F)(F)F)n2)cc1Cl [Compound 253]	–	–	50 percent control	100 percent control	–	0	100%	0
CCCCCn1nc(-c2ccc(Cl)cc2)ncc1=O [Compound 234]	0	100%	80 percent control	100 percent control	0	–	–	–
O=C1CNC(Cc2ccccc2)=NN1CC(F)(F)F [Compound 44]	–	–	0 percent control	85 percent control	–	0	0%	75
CCCC(C)n1nc(-c2ccc(Cl)cc2)ncc1=O (centres unmarked) [Compound 254]	–	–	0 percent control	95 percent control	–	100	100%	0
O=C1CNC(c2ccccc2)=NN1CC(F)(F)F [Compound 33]	100	75%	75 percent control	80 percent control	0	–	–	–
O=c1cnc(-c2cccc(Cl)c2)nn1CC(F)(F)F [Compound 245]	100	100%	0 percent control	99 percent control	100	–	–	–
CC(=O)N1CC(=O)N(CC(F)(F)F)N=C1c1ccc(Cl)cc1 [Compound 40]	50	90%	0 percent control	90 percent control	0	–	–	–
O=C1CNC(c2cc(Cl)cc(Cl)c2)=NN1CC(F)(F)F [Compound 43]	–	–	80 percent control	99 percent control	–	0	0%	50
CCn1nc(-c2ccc(Cl)cc2)ncc1=O [Compound 235]	100	100%	80 percent control	90 percent control	0	–	–	–
CCCCN1N=C(c2ccc(Cl)cc2)NCC1=O [Compound 50]	–	–	80 percent control	100 percent control	–	0	75%	0
O=C1CNC(c2ccc(Cl)cc2)=NN1c1ccccc1 [Compound 29]	0	90%	90 percent control	90 percent control	0	–	–	–
Cc1ccc(-c2ncc(=O)n(CC(F)(F)F)n2)cc1 [Compound 247]	90	0%	80 percent control	100 percent control	0	–	–	–
O=c1cnc(-c2ccc(Cl)cc2)nn1Cc1ccccc1 [Compound 240]	75	100%	75 percent control	95 percent control	50	–	–	–
CCC(C)N1N=C(C2CCCCC2)NCC1=O (centres unmarked) [Compound 48]	–	–	0 percent control	50 percent control	–	0	75%	0
Cn1nc(-c2ccc(Cl)cc2)ncc1=O [Compound 238]	75	100%	90 percent control	50 percent control	0	–	–	–
O=c1cnc(-c2cc(Cl)cc(Cl)c2)nn1CC(F)(F)F [Compound 248]	–	–	80 percent control	100 percent control	–	0	100%	0
CC(C)(C)n1nc(-c2ccc(Cl)cc2)ncc1=O [Compound 241]	0	100%	0 percent control	50 percent control	0	–	–	–
CCC(C)n1nc(C2CCCCC2)ncc1=O (centres unmarked) [Compound 255]	–	–	0 percent control	50 percent control	–	90	100%	0
CN1N=C(c2ccc(Cl)cc2)NCC1=O [Compound 27]	75	0%	99 percent control	80 percent control	0	–	–	–
O=C1CNC(c2ccccn2)=NN1CC(F)(F)F [Compound 52]	–	–	0 percent control	50 percent control	–	0	100%	0
O=c1cnc(Cc2ccccc2)nn1CC(F)(F)F [Compound 249]	–	–	0 percent control	85 percent control	–	0	90%	100
O=c1cnc(-c2ccc(Cl)cc2)nn1CC(F)(F)F [Compound 233]	75	0%	80 percent control	100 percent control	50	–	–	–
